{
  "source": "paper PMC5761851",
  "about": "“Application of a phenotypic drug discovery strategy to identify biological and chemical starting points for inhibition of TSLP production in lung epithelial cells” (PLoS ONE, 2018)",
  "key": {"Syk": {"biological_target": "Syk (Homo sapiens, UniProt P43405)", "experiment": "Enzymatic Syk kinase activity assay", "assay_type": "biochemical"}, "A1": {"biological_target": "T1, A1 (Homo sapiens, UniProt P30542)", "T1 construct": "purchased Eurofins Pharma Discovery Services (KinaseProfiler; Cerep BioPrint panel)", "T1 sequence (P30542 whole entry)": "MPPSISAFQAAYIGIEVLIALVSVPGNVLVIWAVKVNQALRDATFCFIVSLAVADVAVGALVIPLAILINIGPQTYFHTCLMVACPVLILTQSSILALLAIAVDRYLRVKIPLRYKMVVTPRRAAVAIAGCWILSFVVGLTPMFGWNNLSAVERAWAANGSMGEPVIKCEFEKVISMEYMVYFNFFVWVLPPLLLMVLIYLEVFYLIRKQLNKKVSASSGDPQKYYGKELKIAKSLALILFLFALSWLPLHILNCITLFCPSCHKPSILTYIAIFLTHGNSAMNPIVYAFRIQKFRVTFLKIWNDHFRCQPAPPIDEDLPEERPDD", "experiment": "BioPrint panel: A1 (h) (agonist)", "assay_type": "binding", "settings": "1 micromolar, read-out: percentage of inhibition of activity", "text": "(§1) Supplement pone.0189247.s004.xlsx, sheet \"Bioprint Selectivity Panel\" | column: %"}, "alpha 1A": {"biological_target": "T2, alpha 1A (Homo sapiens, UniProt P35348)", "T2 construct": "purchased Eurofins Pharma Discovery Services (KinaseProfiler; Cerep BioPrint panel)", "T2 sequence (P35348 whole entry)": "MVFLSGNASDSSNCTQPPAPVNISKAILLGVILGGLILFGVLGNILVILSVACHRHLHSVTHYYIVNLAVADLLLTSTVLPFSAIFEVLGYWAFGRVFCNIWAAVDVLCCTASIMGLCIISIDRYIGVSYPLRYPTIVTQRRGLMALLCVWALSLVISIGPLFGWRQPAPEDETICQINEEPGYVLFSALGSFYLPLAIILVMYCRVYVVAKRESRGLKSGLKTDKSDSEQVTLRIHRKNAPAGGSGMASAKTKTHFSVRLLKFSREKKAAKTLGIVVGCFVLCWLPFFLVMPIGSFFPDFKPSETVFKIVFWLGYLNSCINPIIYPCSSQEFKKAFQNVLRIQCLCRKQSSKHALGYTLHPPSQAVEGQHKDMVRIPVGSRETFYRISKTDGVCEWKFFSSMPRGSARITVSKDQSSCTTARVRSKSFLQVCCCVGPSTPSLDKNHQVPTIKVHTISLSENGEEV", "experiment": "BioPrint panel: alpha 1A (h) (antagonist)", "assay_type": "binding", "settings": "1 micromolar, read-out: percentage of inhibition of activity", "text": "as §1"}, "alpha 2A": {"biological_target": "T3, alpha 2A (Homo sapiens, UniProt P08913)", "T3 construct": "purchased Eurofins Pharma Discovery Services (KinaseProfiler; Cerep BioPrint panel)", "T3 sequence (P08913 whole entry)": "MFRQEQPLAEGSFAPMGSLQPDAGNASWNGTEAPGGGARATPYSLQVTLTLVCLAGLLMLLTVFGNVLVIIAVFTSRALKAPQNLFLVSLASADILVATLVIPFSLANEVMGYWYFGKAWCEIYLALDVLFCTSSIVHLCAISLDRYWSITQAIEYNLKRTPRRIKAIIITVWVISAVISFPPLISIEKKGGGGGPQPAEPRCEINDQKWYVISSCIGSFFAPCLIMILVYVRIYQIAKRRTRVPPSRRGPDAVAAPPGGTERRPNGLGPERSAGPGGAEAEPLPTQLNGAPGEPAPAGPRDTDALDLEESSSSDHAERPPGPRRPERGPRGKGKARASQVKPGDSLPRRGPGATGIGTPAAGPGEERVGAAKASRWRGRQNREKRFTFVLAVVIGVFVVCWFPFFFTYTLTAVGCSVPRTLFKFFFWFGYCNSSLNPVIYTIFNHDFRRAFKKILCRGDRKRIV", "experiment": "BioPrint panel: alpha 2A (h) (antagonist)", "assay_type": "binding", "settings": "1 micromolar, read-out: percentage of inhibition of activity", "text": "as §1"}, "alpha 2C": {"biological_target": "T4, alpha 2C (Homo sapiens, UniProt P18825)", "T4 construct": "purchased Eurofins Pharma Discovery Services (KinaseProfiler; Cerep BioPrint panel)", "experiment": "BioPrint panel: alpha 2C (h) (antagonist)", "assay_type": "binding", "settings": "1 micromolar, read-out: percentage of inhibition of activity", "text": "as §1"}, "beta 2": {"biological_target": "T5, beta 2 (Homo sapiens, UniProt P07550)", "T5 construct": "purchased Eurofins Pharma Discovery Services (KinaseProfiler; Cerep BioPrint panel)", "T5 sequence (P07550 whole entry)": "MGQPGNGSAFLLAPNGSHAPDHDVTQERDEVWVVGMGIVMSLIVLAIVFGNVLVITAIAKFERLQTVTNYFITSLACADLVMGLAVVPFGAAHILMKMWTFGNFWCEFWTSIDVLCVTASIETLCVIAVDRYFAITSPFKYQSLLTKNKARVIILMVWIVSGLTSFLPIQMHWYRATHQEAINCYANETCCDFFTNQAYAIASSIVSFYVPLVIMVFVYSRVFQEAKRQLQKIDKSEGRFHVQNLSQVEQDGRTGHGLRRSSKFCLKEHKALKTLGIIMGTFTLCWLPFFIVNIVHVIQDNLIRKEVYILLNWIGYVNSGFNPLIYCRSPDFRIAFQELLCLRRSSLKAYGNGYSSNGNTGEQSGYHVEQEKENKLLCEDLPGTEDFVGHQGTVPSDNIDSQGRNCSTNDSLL", "experiment": "BioPrint panel: beta 2 (h) (agonist)", "assay_type": "binding", "settings": "1 micromolar, read-out: percentage of inhibition of activity", "text": "as §1"}, "BB3": {"biological_target": "T6, BB3 (Homo sapiens, UniProt P32247)", "T6 construct": "purchased Eurofins Pharma Discovery Services (KinaseProfiler; Cerep BioPrint panel)", "experiment": "BioPrint panel: BB3 (h) (agonist)", "assay_type": "binding", "settings": "1 micromolar, read-out: percentage of inhibition of activity", "text": "as §1"}, "B2": {"biological_target": "T7, B2 (Homo sapiens, UniProt P30411)", "T7 construct": "purchased Eurofins Pharma Discovery Services (KinaseProfiler; Cerep BioPrint panel)", "experiment": "BioPrint panel: B2 (h) (agonist)", "assay_type": "binding", "settings": "1 micromolar, read-out: percentage of inhibition of activity", "text": "as §1"}, "CCK2 (CCKB)": {"biological_target": "T8, CCK2 (CCKB) (Homo sapiens, UniProt P32239)", "T8 construct": "purchased Eurofins Pharma Discovery Services (KinaseProfiler; Cerep BioPrint panel)", "experiment": "BioPrint panel: CCK2 (CCKB) (h) (agonist)", "assay_type": "binding", "settings": "1 micromolar, read-out: percentage of inhibition of activity", "text": "as §1"}, "H2": {"biological_target": "T9, H2 (Homo sapiens, UniProt P25021)", "T9 construct": "purchased Eurofins Pharma Discovery Services (KinaseProfiler; Cerep BioPrint panel)", "T9 sequence (P25021 whole entry)": "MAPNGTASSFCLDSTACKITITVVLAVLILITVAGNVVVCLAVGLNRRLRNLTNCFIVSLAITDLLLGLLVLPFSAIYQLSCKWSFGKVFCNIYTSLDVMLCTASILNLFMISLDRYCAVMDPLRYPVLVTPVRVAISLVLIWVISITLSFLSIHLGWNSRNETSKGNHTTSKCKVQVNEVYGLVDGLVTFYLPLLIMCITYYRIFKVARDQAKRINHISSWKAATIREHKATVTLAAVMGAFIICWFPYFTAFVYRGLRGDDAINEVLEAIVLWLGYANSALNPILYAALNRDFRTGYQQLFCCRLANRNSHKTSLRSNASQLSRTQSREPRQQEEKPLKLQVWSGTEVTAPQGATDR", "experiment": "BioPrint panel: H2 (h) (antagonist)", "assay_type": "binding", "settings": "1 micromolar, read-out: percentage of inhibition of activity", "text": "as §1"}, "CysLT1 (LTD4)": {"biological_target": "T10, CysLT1 (LTD4) (Homo sapiens, UniProt Q9Y271)", "T10 construct": "purchased Eurofins Pharma Discovery Services (KinaseProfiler; Cerep BioPrint panel)", "T10 sequence (Q9Y271 whole entry)": "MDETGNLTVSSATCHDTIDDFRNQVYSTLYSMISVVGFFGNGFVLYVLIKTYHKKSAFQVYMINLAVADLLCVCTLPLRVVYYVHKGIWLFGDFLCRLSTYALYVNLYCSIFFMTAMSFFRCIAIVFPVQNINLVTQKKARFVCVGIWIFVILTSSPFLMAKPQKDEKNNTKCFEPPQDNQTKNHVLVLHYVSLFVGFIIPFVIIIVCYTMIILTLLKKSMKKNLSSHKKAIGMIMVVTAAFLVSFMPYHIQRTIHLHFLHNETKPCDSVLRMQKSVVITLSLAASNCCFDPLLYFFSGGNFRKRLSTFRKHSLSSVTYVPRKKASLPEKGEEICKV", "experiment": "BioPrint panel: CysLT1 (LTD4) (h) (agonist)", "assay_type": "binding", "settings": "1 micromolar, read-out: percentage of inhibition of activity", "text": "as §1"}, "MAO-A": {"biological_target": "T11, MAO-A (Rattus norvegicus, UniProt P21396)", "T11 construct": "purchased Eurofins Pharma Discovery Services (KinaseProfiler; Cerep BioPrint panel)", "experiment": "BioPrint panel: MAO-A (antagonist)", "assay_type": "binding", "settings": "1 micromolar, read-out: percentage of inhibition of activity", "text": "as §1"}, "PCP": {"system": "PCP", "experiment": "BioPrint panel: PCP (antagonist)", "assay_type": "binding", "settings": "1 micromolar", "text": "as §1"}, "UT": {"biological_target": "T12, UT (Homo sapiens, UniProt Q9UKP6)", "T12 construct": "purchased Eurofins Pharma Discovery Services (KinaseProfiler; Cerep BioPrint panel)", "experiment": "BioPrint panel: UT (h) (agonist)", "assay_type": "binding", "settings": "1 micromolar, read-out: percentage of inhibition of activity", "text": "as §1"}, "dopamine transporter": {"biological_target": "T13, dopamine transporter (Homo sapiens, UniProt Q01959)", "T13 construct": "purchased Eurofins Pharma Discovery Services (KinaseProfiler; Cerep BioPrint panel)", "T13 sequence (Q01959 whole entry)": "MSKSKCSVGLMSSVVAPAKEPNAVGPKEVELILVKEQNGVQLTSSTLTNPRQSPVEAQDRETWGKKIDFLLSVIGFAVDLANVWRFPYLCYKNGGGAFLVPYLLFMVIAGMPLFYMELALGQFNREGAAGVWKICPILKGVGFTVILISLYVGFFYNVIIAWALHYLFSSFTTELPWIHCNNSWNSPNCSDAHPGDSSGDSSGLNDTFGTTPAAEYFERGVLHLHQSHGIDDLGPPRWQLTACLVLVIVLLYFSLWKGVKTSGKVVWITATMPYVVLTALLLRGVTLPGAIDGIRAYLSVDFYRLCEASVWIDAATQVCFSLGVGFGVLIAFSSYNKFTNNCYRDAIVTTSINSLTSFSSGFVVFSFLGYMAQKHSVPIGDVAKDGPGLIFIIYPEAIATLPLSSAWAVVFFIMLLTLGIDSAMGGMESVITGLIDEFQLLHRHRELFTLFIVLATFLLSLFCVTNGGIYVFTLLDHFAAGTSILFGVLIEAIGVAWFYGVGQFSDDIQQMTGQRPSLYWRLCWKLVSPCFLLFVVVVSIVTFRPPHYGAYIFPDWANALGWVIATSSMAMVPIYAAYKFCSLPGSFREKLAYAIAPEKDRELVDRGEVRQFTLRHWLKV", "experiment": "BioPrint panel: dopamine transporter (h) (antagonist)", "assay_type": "binding", "settings": "1 micromolar, read-out: percentage of inhibition of activity", "text": "as §1"}, "COX2": {"biological_target": "T14, COX2 (Homo sapiens, UniProt P35354)", "T14 construct": "purchased Eurofins Pharma Discovery Services (KinaseProfiler; Cerep BioPrint panel)", "T14 sequence (P35354 18-604)": "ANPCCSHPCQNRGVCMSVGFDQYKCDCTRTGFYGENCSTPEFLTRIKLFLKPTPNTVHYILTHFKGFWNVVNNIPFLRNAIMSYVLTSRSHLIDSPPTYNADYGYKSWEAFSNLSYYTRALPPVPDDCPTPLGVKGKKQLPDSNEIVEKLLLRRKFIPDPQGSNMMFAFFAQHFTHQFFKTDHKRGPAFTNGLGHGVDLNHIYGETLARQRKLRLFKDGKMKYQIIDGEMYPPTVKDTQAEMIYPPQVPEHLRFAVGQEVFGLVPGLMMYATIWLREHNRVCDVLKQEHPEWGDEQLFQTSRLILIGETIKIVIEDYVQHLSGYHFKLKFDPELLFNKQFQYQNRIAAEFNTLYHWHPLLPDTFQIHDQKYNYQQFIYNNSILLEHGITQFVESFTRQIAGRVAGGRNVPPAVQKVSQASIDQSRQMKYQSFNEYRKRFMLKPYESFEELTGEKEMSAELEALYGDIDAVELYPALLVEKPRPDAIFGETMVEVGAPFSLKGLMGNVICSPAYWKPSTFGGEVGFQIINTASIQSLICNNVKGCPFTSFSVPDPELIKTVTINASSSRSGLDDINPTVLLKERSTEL", "experiment": "BioPrint panel: COX2 (h)", "assay_type": "biochemical", "settings": "1 micromolar, read-out: percentage of inhibition of activity", "text": "as §1"}, "PDE4D2": {"biological_target": "T15, PDE4D2 (Homo sapiens, UniProt Q08499)", "T15 construct": "purchased Eurofins Pharma Discovery Services (KinaseProfiler; Cerep BioPrint panel)", "T15 sequence (Q08499 303-809 limits assumed)": "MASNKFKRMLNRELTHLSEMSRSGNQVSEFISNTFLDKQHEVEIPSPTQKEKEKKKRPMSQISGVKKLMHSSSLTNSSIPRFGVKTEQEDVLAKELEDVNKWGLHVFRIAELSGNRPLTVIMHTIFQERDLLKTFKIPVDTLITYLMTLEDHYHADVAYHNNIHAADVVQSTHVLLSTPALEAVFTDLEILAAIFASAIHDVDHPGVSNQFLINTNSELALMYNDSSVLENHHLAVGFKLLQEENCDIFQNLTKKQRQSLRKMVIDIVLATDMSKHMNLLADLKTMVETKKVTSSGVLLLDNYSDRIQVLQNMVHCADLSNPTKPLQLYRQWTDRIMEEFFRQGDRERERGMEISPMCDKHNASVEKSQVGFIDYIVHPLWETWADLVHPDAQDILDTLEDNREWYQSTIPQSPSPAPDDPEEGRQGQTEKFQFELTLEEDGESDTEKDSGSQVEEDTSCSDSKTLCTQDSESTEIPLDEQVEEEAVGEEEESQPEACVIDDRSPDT", "experiment": "BioPrint panel: PDE4D2 (h)", "assay_type": "biochemical", "settings": "1 micromolar, read-out: percentage of inhibition of activity", "text": "as §1"}, "HIV-1 protease": {"system": "HIV-1 protease", "experiment": "BioPrint panel: HIV-1 protease", "assay_type": "biochemical", "settings": "1 micromolar", "text": "as §1"}, "MMP-9": {"biological_target": "T16, MMP-9 (Homo sapiens, UniProt P14780)", "T16 construct": "purchased Eurofins Pharma Discovery Services (KinaseProfiler; Cerep BioPrint panel)", "T16 sequence (P14780 94-707)": "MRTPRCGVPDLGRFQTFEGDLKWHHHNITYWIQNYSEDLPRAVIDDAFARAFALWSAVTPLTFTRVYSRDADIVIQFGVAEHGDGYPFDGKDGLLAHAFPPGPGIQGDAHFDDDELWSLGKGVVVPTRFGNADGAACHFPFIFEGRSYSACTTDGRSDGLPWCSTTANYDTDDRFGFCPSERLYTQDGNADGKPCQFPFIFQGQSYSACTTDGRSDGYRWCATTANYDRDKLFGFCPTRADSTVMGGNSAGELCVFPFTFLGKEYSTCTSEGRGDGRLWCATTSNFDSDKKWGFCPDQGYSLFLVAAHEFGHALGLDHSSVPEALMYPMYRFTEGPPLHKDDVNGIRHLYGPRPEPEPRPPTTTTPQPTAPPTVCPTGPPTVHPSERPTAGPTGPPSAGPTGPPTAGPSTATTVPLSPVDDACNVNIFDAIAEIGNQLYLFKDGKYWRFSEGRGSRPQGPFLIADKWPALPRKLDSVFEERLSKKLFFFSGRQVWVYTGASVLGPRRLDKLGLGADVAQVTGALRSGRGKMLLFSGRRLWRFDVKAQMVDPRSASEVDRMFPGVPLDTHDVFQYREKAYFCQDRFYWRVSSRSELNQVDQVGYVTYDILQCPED", "experiment": "BioPrint panel: MMP-9 (h)", "assay_type": "biochemical", "settings": "1 micromolar, read-out: percentage of inhibition of activity", "text": "as §1"}},
  "note": "Values joined by “and” are separate entries in the source; they are usually repeats but may differ in a detail not shown here. Identical values can stand only once. Like-named read-outs stand apart in the source and are kept apart here.",
  "data": [
    {"compound": "Cn1cc(-c2cccc(-c3nc(C(=O)NC4C5CC6CC4CC(O)(C6)C5)c(N)nc3N)c2)cn1", "note": "(centres unmarked) [compound 4]", "values": [
      {"measurement": "IC50", "setting": "Syk; geometric mean, read-out: Activity in reference biochemical assay (IC50, μM) (95% CI) Syk", "result": 11.8, "unit": "µM"},
      {"measurement": "IC50", "setting": "Syk; individual values, read-out: Biochemical activity (IC50, mM) (Syk)", "result": "12.2 µM and 11.4 µM"},
      {"measurement": "inhibition at 1 µM", "setting": "A1", "result": -11.2, "unit": "%"},
      {"measurement": "inhibition at 1 µM", "setting": "alpha 1A", "result": 2.8, "unit": "%"},
      {"measurement": "inhibition at 1 µM", "setting": "alpha 2A", "result": 6.2, "unit": "%"},
      {"measurement": "inhibition at 1 µM", "setting": "alpha 2C", "result": -14.1, "unit": "%"},
      {"measurement": "inhibition at 1 µM", "setting": "beta 2", "result": 1.6, "unit": "%"},
      {"measurement": "inhibition at 1 µM", "setting": "BB3", "result": -3.6, "unit": "%"},
      {"measurement": "inhibition at 1 µM", "setting": "B2", "result": -1, "unit": "%"},
      {"measurement": "inhibition at 1 µM", "setting": "CCK2 (CCKB)", "result": -3.4, "unit": "%"},
      {"measurement": "inhibition at 1 µM", "setting": "H2", "result": 0, "unit": "%"},
      {"measurement": "inhibition at 1 µM", "setting": "CysLT1 (LTD4)", "result": 6.1, "unit": "%"},
      {"measurement": "inhibition at 1 µM", "setting": "MAO-A", "result": 6.4, "unit": "%"},
      {"measurement": "percentage of inhibition of activity", "setting": "PCP", "result": -2.1, "unit": "%"},
      {"measurement": "inhibition at 1 µM", "setting": "UT", "result": 7.4, "unit": "%"},
      {"measurement": "inhibition at 1 µM", "setting": "dopamine transporter", "result": 7.5, "unit": "%"},
      {"measurement": "inhibition at 1 µM", "setting": "COX2", "result": -12.1, "unit": "%"},
      {"measurement": "inhibition at 1 µM", "setting": "PDE4D2", "result": 3, "unit": "%"},
      {"measurement": "percentage of inhibition of activity", "setting": "HIV-1 protease", "result": -16.1, "unit": "%"},
      {"measurement": "inhibition at 1 µM", "setting": "MMP-9", "result": -4.4, "unit": "%"}
    ]}
  ]
}
